According to PubChem BioAssay (NCI):
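1) Cells in 96-well plates. 2) Compound, 48 h, 5 concentrations. 3) Linear interpolation between surrounding doses. 4) Unreached endpoint = highest concentration. Here, GI50 denotes the concentration required for 50% inhibition of growth. Definition used: TGI = concentration required for complete inhibition of growth.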

Tests used:
Experiment in all cases: growth of human tumour cells (NCI), 48 h
[1] = test system: A498 renal
[2] = test system: ACHN renal
[3] = test system: CAKI-1 renal
[4] = test system: COLO 205 colon
[5] = test system: DU-145 prostate
[6] = test system: HCC-2998 colon
[7] = test system: NCI-H226 lung
[8] = test system: OVCAR-4 ovarian
[9] = test system: RPMI-8226 leukemia
[10] = test system: UO-31 renal

Structure (SMILES)	GI50 [1]	TGI [1]	GI50 [2]	TGI [2]	GI50 [3]	TGI [3]	GI50 [4]	TGI [4]	GI50 [5]	TGI [5]	GI50 [6]	TGI [6]	GI50 [7]	TGI [7]	GI50 [8]	TGI [8]	GI50 [9]	TGI [9]	GI50 [10]	TGI [10]
CCCCCCCCCCCCCCCc1cc(O)ccc1N	21.7 µM	75.3 µM	> 100 µM	> 100 µM	1.72 µM	7.06 µM	> 9.96 µM	> 62.5 µM	> 100 µM	> 100 µM	> 100 µM	> 100 µM	8.38 µM	> 49.2 µM	1.23 µM	3.77 µM	0.18 µM	18.8 µM	0.685 µM	9.36 µM
COc1ccc(-c2n[nH]nc2-c2csc3ccccc23)cc1OC	2.96 µM	12.1 µM	3.94 µM	76 µM	3.69 µM	34.2 µM	2.82 µM	11.7 µM	3.77 µM	> 100 µM	4.21 µM	19.4 µM	13.2 µM	74.6 µM	6.33 µM	> 100 µM	3.64 µM	59 µM	2.78 µM	20.8 µM
COC(CCP(=O)(c1ccccc1)c1ccccc1)(C(=O)c1ccccc1)c1ccccc1 (centres undefined)	3.4 µM	16.8 µM	4.98 µM	17 µM	2.95 µM	12.2 µM	1.64 µM	3.82 µM	12 µM	24.3 µM	4.11 µM	17.9 µM	2.19 µM	15.7 µM	5.57 µM	21.4 µM	0.433 µM	2.6 µM	2.46 µM	16.9 µM
COc1cc(OC)c2c(=O)c(O)c(-c3ccc(OC)c(OC)c3)oc2c1		> 100 µM		> 100 µM		> 31.4 µM		> 100 µM		> 100 µM		9.34 µM		> 100 µM		2.31 µM		> 31.6 µM		> 100 µM
C=C=C(C)[Si](C)(C)C		> 100 µM		> 100 µM		> 100 µM		> 100 µM		> 100 µM		> 100 µM		> 100 µM		> 100 µM		> 100 µM		> 100 µM
O=C1OC(c2ccc(O)c(-c3ccccc3)c2)(c2ccc(O)c(-c3ccccc3)c2)c2c(Cl)c(Cl)c(Cl)c(Cl)c21		> 100 µM		> 100 µM		> 100 µM		> 100 µM		> 100 µM		> 100 µM		> 100 µM		> 100 µM		> 100 µM		> 100 µM
COc1cccc(/C=N\Nc2ccc([N+](=O)[O-])cn2)c1O	2.42 µM	15.4 µM	2.33 µM	7.61 µM	1.74 µM	4.14 µM	27.8 µM	> 100 µM	4.34 µM	62.6 µM	8.01 µM	> 100 µM	3.72 µM	26.2 µM	4.28 µM	> 100 µM	3.21 µM	27.8 µM	1.74 µM	7.24 µM
COc1ccc(O)c(C(=O)c2ccc(C(=O)O[C@@H]3CCCNC[C@H]3NC(=O)c3ccncc3)cc2)c1F	0.189 µM	1.6 µM	1.49 µM	> 25 µM	0.543 µM	> 25 µM	1.16 µM	> 25 µM	1.47 µM	> 25 µM	2.08 µM	> 25 µM	1.68 µM	> 25 µM	7.9 µM	> 25 µM	1.25 µM	> 25 µM	0.375 µM	> 14 µM
CCN(CC)CCOc1ccc(/C=C2\CC3C4CCC5=CC(=O)CC[C@]5(C)C4CC[C@]3(C)C2=O)cc1OC (some centres undefined)	1.99 µM	8.48 µM	3.05 µM		2.66 µM	6.54 µM	1.75 µM	4.61 µM	3.26 µM	16.4 µM	2.18 µM	5.18 µM	2.03 µM	6.51 µM	10.6 µM	> 100 µM	1.79 µM	5.03 µM	0.701 µM	> 100 µM
CCCN(CCC)c1ccc(CO)c(C)c1	1.09 µM	3.64 µM	81 µM	> 100 µM	38.8 µM	> 100 µM	19.4 µM	68.8 µM	> 100 µM	> 100 µM	> 100 µM	> 100 µM	9.4 µM	23.7 µM	11.3 µM	25.3 µM	18.4 µM	50 µM	> 100 µM	> 100 µM
CC(ONC(=O)c1cc(C(F)(F)F)cc(C(F)(F)F)c1)C(=O)Nc1ccc(Cl)cc1 (centres undefined)	3.35 µM	14.5 µM	4.55 µM	50.6 µM	20.3 µM	> 76.6 µM	5.32 µM	25.8 µM	11.5 µM	> 100 µM	4.16 µM	17 µM	7.31 µM	> 64.4 µM	4.64 µM	> 100 µM	2.27 µM	6.98 µM	4.85 µM	21.5 µM
O=C(COc1cccc(/C=C2\COc3ccccc3C2=O)c1)Nc1nccs1	15.7 µM	29.2 µM	1.86 µM	3.55 µM	1.61 µM	3.56 µM	2.26 µM	5.24 µM	1.96 µM	3.37 µM	1.95 µM	3.48 µM	4.62 µM	25.1 µM	3.99 µM	14.3 µM	1.29 µM	3.69 µM	1.52 µM	2.91 µM
COc1ccc2c(c1)c(C1(c3cn(C)c4ccc(OC)cc34)C(=O)Nc3ccc(F)cc31)cn2C	13.6 µM	75.3 µM	4.63 µM	> 100 µM	2.06 µM	45.3 µM	2.62 µM	6.36 µM	11.5 µM	> 100 µM	4.53 µM	> 100 µM	11.9 µM	> 100 µM	3.92 µM	> 100 µM	6.77 µM	> 100 µM	2.27 µM	> 100 µM
O=S1(=O)CCN(Cc2ccccn2)CC1		> 100 µM		> 100 µM		> 100 µM		> 100 µM		> 100 µM		> 100 µM		> 100 µM		> 100 µM		> 100 µM		> 100 µM
CC(=O)/C=C/C1=C(c2cc3ccccc3s2)c2ccccc2CC1	28.9 µM	58.1 µM	19.4 µM	45.5 µM	51.1 µM	> 100 µM	29.9 µM	> 100 µM	52.8 µM	> 100 µM	22.7 µM	50.2 µM	19.8 µM	40.8 µM	25.9 µM	> 100 µM	3.86 µM	24.4 µM	21 µM	59.4 µM
Cn1c(COC(=O)N2CCCCC2)nc2c(N3CCOCC3)nc(-c3ccccc3)nc21	1.37 µM	2.69 µM	0.352 µM	1.29 µM	0.354 µM	1.51 µM	1.03 µM	2.63 µM	1.01 µM	2.31 µM	1.58 µM	3.04 µM	1.59 µM	3.62 µM	0.638 µM	1.85 µM	0.257 µM	0.814 µM	0.26 µM	1.45 µM
